In patent EP0717990B1, “COMPOSITION FOR REMEDYING DRUG DEPENDENCE” (TAISHO PHARMACEUTICAL CO. LTD, priority 1993, dated 1995):
Like-named read-outs stand apart in the source and are kept apart here.

Columns and labels:
[1] = system: cocaine-dependent monkeys; assay: Effect on cocaine-dependent monkeys (drug self-administration); format: in vivo, male cynomolgus monkeys; settings: cocaine intake per day, cocaine-dependent cynomolgus monkeys
Procedure: [Investigation on an effect on cocaine-dependent monkeys]
A test was carried out according to the method described in Drug and Alcohol Dependence, 1989, Vol. 24, pp. 135-142.
A catheter was allowed to indwell chronically in the vein of each monkey and the investigation was carried out by a drug self-administration experimental method in which a definite amount of a liquid drug was automatically poured according to a reinforcement schedule when the animal pushed a lever. When the cocaine intake per day was 20 mg/kg/day or more for 10 consecutive weeks or more, it was judged that the dependence was caused.

[2] = system: phencyclidine (PCP)-induced abnormal behavior; assay: Antagonism against phencyclidine (PCP)-induced abnormal behavior (head weaving); settings: Rattus norvegicus, read-out: ED50 value (mg/kg)
sigma receptor = settings: result in words; cited from earlier work
5-HT1A = biological target: T1, 5-HT1A (Homo sapiens, UniProt P08908); settings: result in words; cited from earlier work
T1 sequence (P08908 1-422): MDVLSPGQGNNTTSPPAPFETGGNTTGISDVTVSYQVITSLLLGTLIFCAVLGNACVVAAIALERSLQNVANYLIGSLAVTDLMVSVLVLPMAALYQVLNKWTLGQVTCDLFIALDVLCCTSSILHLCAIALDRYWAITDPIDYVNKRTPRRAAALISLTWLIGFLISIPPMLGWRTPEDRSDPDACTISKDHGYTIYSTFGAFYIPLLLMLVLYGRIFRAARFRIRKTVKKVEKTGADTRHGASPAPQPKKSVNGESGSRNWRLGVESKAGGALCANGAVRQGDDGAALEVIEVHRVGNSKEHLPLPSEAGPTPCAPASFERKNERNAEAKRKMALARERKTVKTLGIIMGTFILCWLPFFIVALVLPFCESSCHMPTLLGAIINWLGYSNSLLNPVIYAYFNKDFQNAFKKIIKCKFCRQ

D2 = D2 (Homo sapiens, UniProt P14416); settings: result in words; cited from earlier work
5-HT2 = 5-HT2 (Homo sapiens, UniProt P28223); settings: result in words; cited from earlier work
D1 = D1 (Homo sapiens, UniProt P21728); settings: result in words; cited from earlier work
[3] = Single-administration toxicity test; set-up: species or system Wistar strain rats; settings: Wistar, rat, in vivo, oral, observation 14 days, read-out: Approximate LD50
Procedure: [Single-administration toxicity test]
Kind of animal: Wistar strain rats, male and female, 6 to 7 weeks old (at the time of administration). Number of animals: 5 males and 5 females in each group. Administration route: Oral. Number of groups: male 6 groups, female 6 groups. Administered drug: N,N-di-n-propyl-2-[4-methoxy-3-(2-phenylethoxy)phenyl]ethylamine hydrochloride. Dosage form: a solution in distilled water. Dose: male 312 to 891 mg/kg, female 240 to 685 mg/kg (common ratio […]). Observation time: 14 days.

alcohol dependence = assay: Effect on alcohol dependence (conditioned place preference in shuttle box); format: in vivo, male Wistar strain rats; settings: rats; for Desire-arising effect for ethanol treatment compartment: 30 minutes before ethanol administration
Procedure: [Investigation on an effect on alcohol dependence]
A test was carried out according to the method described in Pharmacology Biochemistry and Behavior, Vol. 35, pp. 485-487 (1990).
Compound B used according to the present invention was administered in a dose of 0.1 or 1 mg/kg 30 minutes before ethanol administration in each run.
An experimental apparatus was a 2-compartments box (width 30 cm, length 60 cm, height 30 cm) made of acrylic plates and divided equally into a white compartment and a black compartment by a guillotine door provided in the middle of the box. In addition, the floor of the box had been made non-slip in the white compartment and slippery in the black compartment, that is, the box used was a so-called shuttle box capable of giving both a visual stimulus of black and white and a tactile stimulus of the floor.
Conditioning was carried out once a day for 6 days. Each rat was treated with ethanol (0.5 or 1 g/kg) or physiological saline and then confined in one of the compartment for 50 minutes. The next day, the rat was subjected to a treatment different from that carried out on the previous day, and then confined in the other compartment for 50 minutes. The above procedure was repeated three times. For minimizing the influence of the difference of the conditioning procedure on the result, a counter balance method was adopted, that is, there were employed the following 4 combinations of the ethanol treatment or the physiological saline treatment and the white or black compartment: • 1) ethanol and white; physiological saline and black on the next day, • 2) physiological saline and black; ethanol and white on the next day, • 3) ethanol and black; physiological saline and white on the next day, and • 4) physiological saline and white; ethanol and black on the next day.
As a control group, a group which had been given physiological saline instead of being subjected to ethanol treatment was conditioned in the same manner as above.
After 6 days of the conditioning procedure, each run of measuring the length of stay in each compartment was carried out for 15 minutes. Neither ethanol nor physiological saline was administered to the conditioned rats. In the apparatus, a platform (width 2 cm, length 5 cm) made of a wire net and having a gray color intermediate between white and black was set in the middle of the box, i.e., the compartmenting portion. The length of stay was measured as follows: each rat was placed on the platform, and then a time for which the forefeet and head of the rat were in the black or white compartment was measured as a length of stay in the black or white compartment, respectively, for 15 minutes after the rat got down the platform to become able to come from or go to any of the white and black compartments freely. The desire-arising effect for the drug treatment compartment, i.e., the place preference was determined in terms of a value obtained by subtracting the length of stay in the physiological saline treatment compartment from the length of stay in the drug treatment compartment.

[4] = orally administered in a dose of 0.1 mg/kg

Chain of D1 (P21728 whole entry): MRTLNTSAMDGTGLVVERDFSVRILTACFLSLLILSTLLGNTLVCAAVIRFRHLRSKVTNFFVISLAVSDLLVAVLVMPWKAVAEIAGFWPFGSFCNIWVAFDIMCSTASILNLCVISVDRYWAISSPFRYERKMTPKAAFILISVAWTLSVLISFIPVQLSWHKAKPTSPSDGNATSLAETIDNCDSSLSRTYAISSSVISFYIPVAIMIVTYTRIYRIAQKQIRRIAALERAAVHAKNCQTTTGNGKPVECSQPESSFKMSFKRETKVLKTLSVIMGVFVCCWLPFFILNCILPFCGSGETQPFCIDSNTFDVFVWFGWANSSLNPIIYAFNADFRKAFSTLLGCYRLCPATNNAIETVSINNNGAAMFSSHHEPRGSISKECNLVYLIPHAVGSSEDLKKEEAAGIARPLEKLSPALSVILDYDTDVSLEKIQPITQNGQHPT
Chain of 5-HT2 (P28223 whole entry): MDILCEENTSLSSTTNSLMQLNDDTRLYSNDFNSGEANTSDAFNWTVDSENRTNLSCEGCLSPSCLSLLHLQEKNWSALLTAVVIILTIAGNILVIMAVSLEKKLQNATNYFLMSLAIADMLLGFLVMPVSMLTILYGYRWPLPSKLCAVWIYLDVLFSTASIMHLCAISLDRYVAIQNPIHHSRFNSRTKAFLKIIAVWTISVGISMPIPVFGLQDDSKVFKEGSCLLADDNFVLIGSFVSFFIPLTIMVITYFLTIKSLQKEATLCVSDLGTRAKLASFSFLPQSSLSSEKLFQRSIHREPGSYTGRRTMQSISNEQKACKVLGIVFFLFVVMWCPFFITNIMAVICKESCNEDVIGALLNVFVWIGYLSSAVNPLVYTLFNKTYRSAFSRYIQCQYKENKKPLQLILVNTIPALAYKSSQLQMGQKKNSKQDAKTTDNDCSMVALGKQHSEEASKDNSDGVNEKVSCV
Chain of D2 (P14416 whole entry): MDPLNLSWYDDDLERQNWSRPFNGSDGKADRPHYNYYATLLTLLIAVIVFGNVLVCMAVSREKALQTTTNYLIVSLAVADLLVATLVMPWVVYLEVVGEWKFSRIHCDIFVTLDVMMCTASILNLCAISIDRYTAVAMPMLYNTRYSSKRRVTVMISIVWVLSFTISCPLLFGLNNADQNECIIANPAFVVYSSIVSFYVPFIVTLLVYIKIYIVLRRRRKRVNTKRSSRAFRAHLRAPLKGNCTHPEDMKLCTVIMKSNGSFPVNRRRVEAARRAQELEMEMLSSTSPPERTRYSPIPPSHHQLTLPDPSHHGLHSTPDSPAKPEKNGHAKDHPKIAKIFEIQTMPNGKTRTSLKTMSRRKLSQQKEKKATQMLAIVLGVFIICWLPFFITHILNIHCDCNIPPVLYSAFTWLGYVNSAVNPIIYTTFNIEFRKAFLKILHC

## C[C@@H]1CN(CCCn2c3ccccc3c3ccccc32)C[C@H](C)N1 [Rimcazole, reference compound]
[1]; orally administered in a dose of 10 mg/kg
  Percentage of decrease in cocaine intake (%): 28.0%
[2]
  ED50: 28 mg/kg

## CCCN(CCC)CCc1ccc(OC)c(OCCc2ccccc2)c1 [N,N-dipropyl-2-[4-methoxy-3-(2-phenylethoxy)phenyl]ethylamine]
Sigma receptor
  affinity to sigma receptor: high affinity
5-HT1A
  affinity for 5-HT1A: low affinity
D2
  affinity for D2: low affinity
5-HT2
  affinity for 5-HT2: low affinity
D1
  affinity for D1: low affinity

## CCCN(CCC)CCc1cccc(OC)c1OCCc1ccccc1.Cl [D, N,N-di-n-propyl-2-[3-methoxy-2-(2-phenylethoxy)phenyl]ethylamine hydrochloride]
[1]; [4]
  Percentage of decrease in cocaine intake (%): 49.3%
[2]
  ED50: 0.27 mg/kg

## CCCN(CCC)CCCc1ccc(OC)c(OCCc2ccccc2)c1.Cl [C, N,N-di-n-propyl-3-[4-methoxy-3-(2-phenylethoxy)phenyl]propylamine hydrochloride]
[1]; [4]
  Percentage of decrease in cocaine intake (%): 77.1%
[2]
  ED50: 0.22 mg/kg

## CCCN(CCC)CCc1ccc(OC)c(OCCc2ccccc2)c1.Cl [Compound B, N,N-di-n-propyl-2-[4-methoxy-3-(2-phenylethoxy)phenyl]ethylamine hydrochloride]
[1]; [4]
  Percentage of decrease in cocaine intake (%): 89.3%
[3]; female rats
  LD50 at 14 days: 312 to 406 mg/kg
[3]; male rats
  LD50 at 14 days: 685 to 891 mg/kg
[2]
  ED50: 0.12 mg/kg
Alcohol dependence; 0.1 or 1 mg/kg, result in words
  ethanol dependence: suppressed the ethanol dependence in a dose-dependent manner
Alcohol dependence; Ethanol (0.5 g/kg) + B 0.1 mg/kg
  Desire-arising effect for ethanol treatment compartment: 104 ± 41
Alcohol dependence; Ethanol (0.5 g/kg) + B 1 mg/kg
  Desire-arising effect for ethanol treatment compartment: 11 ± 32
Alcohol dependence; Ethanol (1 g/kg) + B 0.1 mg/kg
  Desire-arising effect for ethanol treatment compartment: 101 ± 47
Alcohol dependence; Ethanol (1 g/kg) + B 1 mg/kg
  Desire-arising effect for ethanol treatment compartment: 9 ± 12

## CCCN(CCC)CCc1cc(Cl)ccc1OCCc1ccccc1.O=C(O)C(=O)O [A, N,N-di-n-propyl-2-[5-chloro-2-(2-phenylethoxy)phenyl]ethylamine oxalate]
[1]; [4]
  Percentage of decrease in cocaine intake (%): 62.6%
[2]
  ED50: 0.3 mg/kg
